For this assay, the system named is gene markers (Tap1 or Ctss). Put plainly: Temporal changes in blood expression levels of Tap1 and Ctss after heart transplantation (Example 5, FIG. 4). It counts as in vivo, rat. The settings on record: s.c. daily dosing as in Example 2; blood mRNA to post-transplantation day 4, relative to pre-transplantation level (as 1). As for the experimental part:
To precisely examine changes in the expression level of each of the genes selected here, their mRNAs were quantified. For Irf1, Psmb9, Nos2, and Pim1, the mRNA was quantified by using 25 ng of extracted mRNA together with each primer and probe shown in Table 1, synthesizing cDNA with TaqMan Reverse Transcription Reagents (manufactured by Applied Biosystems) under the conditions shown in Table 1, on an ABI PRISM 7900HT Detection System (manufactured by Applied Biosystems), and using β-actin as an internal control. For Tap1 and Ctss, mRNA was quantified by using 25 ng of extracted mRNA together with each primer and probe (final concentrations: […] each primer, 250 nM TaqMan probe; TaqMan Gene Expression Assays Rn00709612_ml (Tap1) or Rn00569036_ml (Ctss), Applied Biosystems), synthesizing cDNA with TaqMan Reverse Transcription Reagents (manufactured by Applied Biosystems) on an ABI PRISM 7900HT Detection System (manufactured by Applied Biosystems), and using β-actin as an internal control. […]

Turning to `C=CC[C@@H]1/C=C(\C)C[C@H](C)C[C@H](OC)[C@H]2O[C@@](O)(C(=O)C(=O)N3CCCC[C@H]3C(=O)O[C@H](/C(C)=C/[C@@H]3CC[C@@H](O)[C@H](OC)C3)[C@H](C)[C@@H](O)CC1=O)[C@H](C)C[C@@H]2OC` [tacrolimus], the “expression levels of the gene markers Tap1 and Ctss compared with the rejection group” value is given as “suppressed compared with the rejection group, to the level similar to or lower than that of the non-rejection group”.

These data come from patent publication US20090053695A1, “Gene Marker and Use Thereof” (priority 2004, published 2009).
